One test concerns PDK2. Put plainly: 2-D IEF phosphorylation of PDK2 in hearts after I/R. Details: species or system rat. To be noted: cardiac I/R. The protocol: (§1) An ex vivo model of acute ischemic heart damage was used, which involves a 30 min equilibration period, followed by 30 min of global ischemia, which in turn is followed by 60 min of reperfusion. The hearts were perfused with 1 μM TAT or TAT-conjugated peptide. Normoxic control hearts were subjected to 90 min perfusion in the absence of ischemia. Coronary effluent was collected to determine creatine phosphokinase (CPK) release during the first 30 min of the reperfusion period. At the end of the reperfusion period, hearts were sliced into 1-mm-thick transverse sections and incubated in triphenyltetrazolium chloride solution (TTC, 1% in phosphate buffer, pH 7.4) at 37° C. for 15 min. Infarct size was expressed as a percentage of the risk zone (equivalent to total LV muscle mass) (methods described in Brandman et al., 2007, J. Biol. Chem., 282:4113-4123; Inagaki et al., 2003, Circulation, 108:869-875). […]
As described above, δPKC phosphorylation of PDK following cardiac ischemia and reperfusion leads to the phosphorylation and a decline in the activity of pyruvate dehydrogenase (PDH) (Churchill et al., 2005, Circ. Res., 97:78-85). […] Since ΨPDK is derived from the PDK homologous sequence in δPKC, it was next determined whether PDK phosphorylation is affected by ΨPDK treatment.

A further test has as its target T1, δPKC (Rattus norvegicus, UniProt P09215).
T1 construct: from tissue; host or cells: rat heart (ex vivo ischemia/reperfusion), mitochondrial fraction
Put plainly: δPKC translocation into mitochondria in intact hearts (ex vivo I/R). On the procedure:
(§2) An ex vivo model of acute ischemic heart damage was used, which involves a 30 min equilibration period, followed by 30 min of global ischemia, which in turn is followed by 60 min of reperfusion. The hearts were perfused with 1 μM TAT or TAT-conjugated peptide. Normoxic control hearts were subjected to 90 min perfusion in the absence of ischemia. Coronary effluent was collected to determine creatine phosphokinase (CPK) release during the first 30 min of the reperfusion period. At the end of the reperfusion period, hearts were sliced into 1-mm-thick transverse sections and incubated in triphenyltetrazolium chloride solution (TTC, 1% in phosphate buffer, pH 7.4) at 37° C. for 15 min. Infarct size was expressed as a percentage of the risk zone (equivalent to total LV muscle mass) (methods described in Brandman et al., 2007, J. Biol. Chem., 282:4113-4123; Inagaki et al., 2003, Circulation, 108:869-875).
Rat hearts were homogenized in a buffer containing 210 mM mannitol, 70 mM sucrose, 5 mM MOPS and 1 mM EDTA followed by isolation of the mitochondria fraction (described in Churchill et al., 2008, J. Mol. Cell. Cardiol., 46:278-284) and identified by the presence of VDAC (MitoSciences, Eugene, Oreg., USA). The level of phosphorylated and unphosphorylated JNK1/2 was analyzed in the total fraction using respective specific antibodies (Cell Signaling, Danvers, Mass. and Santa Cruz Biotechnology, CA, USA). […]
Phosphorylation of the mitochondrial PDK by δPKC occurs only following myocardial infarction Under these conditions, δPKC translocates into the mitochondria (Churchill et al., 2005, Circ. Res., 97:78-85) where it has access to PDK. It was therefore first determined whether ΨPDK peptide affects δPKC translocation into the mitochondria. […] However, similar to the mitochondrial matrix protein, aldehyde dehydrogenase (ALDH2), the majority of δPKC was insensitive to proteolysis by PK (FIG. 4C; quantitated in FIG. 4D).

The subject of the next test is ALDH2. Put plainly: 2-D IEF phosphorylation of ALDH2 in hearts after I/R. Set-up: species or system rat. To be noted: cardiac I/R. On the procedure: as §2
2-D IEF/SDS polyacrylamide gel electrophoresis using rat heart samples was performed as previously described (Chen et al., 2008, Science, 321:1493-1495). 10% SDS gel electrophoresis and Western blotting were carried out by standard methods using PDK2 c-term rabbit (Abgent, Calif., USA), PDH subunit E1 alpha monoclonal (Invitrogen, Calif., USA) and ALDH2 goat (Santa Cruz Biotechnology, CA, USA) antibodies. […]

For the next test, the system named is hearts subjected to I/R. Put plainly: Ex vivo cardiac protection from ischemia/reperfusion (Langendorff; infarct size, CPK release). Set-up: species or system rat. On the procedure: as §1
First, I/R-induced infarct size after treatment with ΨPDK or δV1-1 (Inagaki et al., 2003, Circulation, 108:869-875), was smaller than that in hearts treated with the control peptide or with ΨδRACK, the δPKC-specific activator or with δV1-5 (FIG. 6A). Second, similar data were obtained when determining the levels of released creatine phosphokinase (CPK), as a marker of myocardial infarction; CPK levels in the ΨPDK- or δV1-1-treated hearts were similar and were lower than those after treatment with control peptide, ΨδRACK or δV1-5 (FIG. 6B).
To begin determining the contribution of each of the amino acids on the effect of the peptide, Alanine scanning was used (Brunel et al., 2006, J. Virol., 80:1680-1687; Chen et al., J. Pep. Res., 2000, 56:147-156; Brems et al., 1992, Prot. Eng., 5:527-533) (substituting individual amino acid with an alanine). The resultant ΨPDK peptide analogs were then used in the same model of myocardial infarction, using CPK release and JNK phosphorylation as markers for cardiac injury. CPI release into the perfusates and pJNK in the hearts were determined after I/R in the presence of respective peptides and compared to the levels in hearts subjected to I/R in the presence of the control peptide. None of the peptides having a substitution had any significant biological activity (Table 1).

The mark [1] stands for this setting: ex vivo I/R, vs control peptide, ΨδRACK or δV1-5.

No end group written: not given here.

T1 sequence (P09215 whole entry, the tested form may be a part): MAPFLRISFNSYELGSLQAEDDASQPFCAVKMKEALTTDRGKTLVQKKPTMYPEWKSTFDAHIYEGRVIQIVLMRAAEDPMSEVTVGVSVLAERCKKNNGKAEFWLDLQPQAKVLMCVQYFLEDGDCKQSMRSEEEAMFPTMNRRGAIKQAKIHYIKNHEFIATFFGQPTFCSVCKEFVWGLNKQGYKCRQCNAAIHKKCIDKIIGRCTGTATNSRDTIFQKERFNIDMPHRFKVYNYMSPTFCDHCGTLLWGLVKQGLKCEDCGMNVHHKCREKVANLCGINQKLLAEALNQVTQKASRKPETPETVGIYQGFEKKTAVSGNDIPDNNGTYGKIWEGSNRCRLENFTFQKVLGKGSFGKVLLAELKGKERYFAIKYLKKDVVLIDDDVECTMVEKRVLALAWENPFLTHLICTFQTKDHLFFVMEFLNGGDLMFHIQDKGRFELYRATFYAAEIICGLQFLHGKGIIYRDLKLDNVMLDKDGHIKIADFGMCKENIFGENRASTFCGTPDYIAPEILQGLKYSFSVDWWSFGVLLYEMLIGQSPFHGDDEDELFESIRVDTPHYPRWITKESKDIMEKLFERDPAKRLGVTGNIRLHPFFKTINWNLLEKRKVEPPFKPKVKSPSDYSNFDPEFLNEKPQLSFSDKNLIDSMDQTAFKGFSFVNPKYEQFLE

For “ALSTER (not fully specified (C-terminus); also: TAT47-57 conjugated via disulfide) [ΨPDK, for cells and hearts conjugated to TAT47-57 via disulfide bond]”, the “phosphorylation of PDK2” value in the test on PDK2 is on record as “did not occur”. In the test with δPKC (following I/R), the “δPKC entry into the mitochondria (proteinase K resistance)” value is on record as “increased I/R-induced δPKC entry into the mitochondria”. Moreover, in the test with δPKC (following I/R, vs control peptide), the “δPKC association with the mitochondria” value is “two-fold increase”. Also, the “δPKC translocation to the mitochondria” value with δPKC (normoxic condition) was “did not induce δPKC translocation to the mitochondria”. Besides, the ALDH2 phosphorylation entry with ALDH2 is reported as “neither ΨPDK nor δV1-1 affected ALDH2 phosphorylation”. The “cardioprotection / biological activity in ex vivo I/R model (in words)” value with hearts subjected to I/R (CPK release and JNK phosphorylation as markers) was “exert cardio-protective effects”. In the test on hearts subjected to I/R (ex vivo I/R, release into perfusate, 1 μM peptide), the “CPK (u/L)” value was 335 ± 520 u/L. Further, in the test on hearts subjected to I/R (setting [1]), the “CPK levels (in words)” value is recorded as “lower” and the I/R-induced infarct size entry is on record as “smaller”.

For the origin of these results see US10131691B2, “Compositions and methods for specific regulation of pyruvate dehydrogenase kinase” (THE BOARD OF TRUSTEES OF THE LELAND STANFORD JUNIOR …, priority 2011, dated 2018).
